Measured values published in PMC10901950, “Neuroprotective and Anti-inflammatory Effects of Rubiscolin-6 Analogs with Proline Surrogates in Position 2” (Neurochemical Research, 2023).
Ends that are not written are not given here.

System: RAW 264.7 cells
Experiment: Intracellular ROS generation in RAW 264.7 cells (not stimulated)
Assay type: cell-based, mouse
Settings: 0.1-10 µM, 24 h, DCFH-DA, unstimulated cells
Procedure: The detection of ROS generated in injured cells was evaluated using the 5(6)-carboxy-2ʹ,7ʹ-dichlorofluorescein diacetate (carboxy-H2DCFDA) reagent (Invitrogen, Bleiswijk, Netherlands). After incubation, cells were washed with ice-cold Phosphate-Buffer Saline (PBS). Then, the carboxyl-H2DCFDA (100 µL, 20 µM) reagent was added and incubated for 1 h at 37 °C. Finally, the fluorescence intensity was measured at wavelengths of […], and ROS levels were presented in percentage of control (non-treated cells).

YPLDLF [R-6, rubiscolin-6] was tested, and the “effect on intracellular ROS levels” value was “did not affect”.
